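Assay format: 96-well plates, 48-hour exposure. Definition used: TGI = concentration required for complete inhibition of growth.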
Assays:
Test in all cases: NCI-60 cell line screen, 48 h
CAKI-1 renal = tested on: CAKI-1 renal
SF-295 CNS = tested on: SF-295 CNS
CCRF-CEM leukemia = tested on: CCRF-CEM leukemia
SW-620 colon = tested on: SW-620 colon
786-0 renal = tested on: 786-0 renal
RPMI-8226 leukemia = tested on: RPMI-8226 leukemia
NCI-H522 lung = tested on: NCI-H522 lung
UO-31 renal = tested on: UO-31 renal
HCC-2998 colon = tested on: HCC-2998 colon
ACHN renal = tested on: ACHN renal
DMS 273 small cell lung = tested on: DMS 273 small cell lung
HT29 colon = tested on: HT29 colon
IGROV1 ovarian = tested on: IGROV1 ovarian
TK-10 renal = tested on: TK-10 renal
SK-MEL-5 melanoma = tested on: SK-MEL-5 melanoma
DMS 114 small cell lung = tested on: DMS 114 small cell lung
SNB-75 CNS = tested on: SNB-75 CNS
OVCAR-4 ovarian = tested on: OVCAR-4 ovarian
SF-539 CNS = tested on: SF-539 CNS
SK-MEL-2 melanoma = tested on: SK-MEL-2 melanoma
LOX IMVI melanoma = tested on: LOX IMVI melanoma
HOP-92 NSCLC = tested on: HOP-92 NSCLC
NCI-H23 lung = tested on: NCI-H23 lung
UACC-257 melanoma = tested on: UACC-257 melanoma
OVCAR-8 ovarian = tested on: OVCAR-8 ovarian
A549 NSCLC = tested on: A549 NSCLC
M14 melanoma = tested on: M14 melanoma
COLO 205 colon = tested on: COLO 205 colon
LXFL 529 NSCLC = tested on: LXFL 529 NSCLC
K-562 leukemia = tested on: K-562 leukemia
SR leukemia = tested on: SR leukemia
HL-60(TB) leukemia = tested on: HL-60(TB) leukemia
A498 renal = tested on: A498 renal
SNB-19 CNS = tested on: SNB-19 CNS
OVCAR-3 ovarian = tested on: OVCAR-3 ovarian
KM20L2 colon = tested on: KM20L2 colon
EKVX NSCLC = tested on: EKVX NSCLC
MOLT-4 leukemia = tested on: MOLT-4 leukemia
NCI-H226 lung = tested on: NCI-H226 lung
SK-MEL-28 melanoma = tested on: SK-MEL-28 melanoma
XF 498 CNS = tested on: XF 498 CNS
MALME-3M melanoma = tested on: MALME-3M melanoma
RXF-631 renal = tested on: RXF-631 renal
RXF 393 renal = tested on: RXF 393 renal
DLD-1 colon = tested on: DLD-1 colon
HCT-116 colon = tested on: HCT-116 colon
SF-268 CNS = tested on: SF-268 CNS
HOP-62 NSCLC = tested on: HOP-62 NSCLC
SN12C renal = tested on: SN12C renal
HOP-18 NSCLC = tested on: HOP-18 NSCLC
U251 CNS = tested on: U251 CNS
SNB-78 CNS = tested on: SNB-78 CNS
M19-MEL melanoma = tested on: M19-MEL melanoma
UACC-62 melanoma = tested on: UACC-62 melanoma
NCI-H460 lung = tested on: NCI-H460 lung
SK-OV-3 ovarian = tested on: SK-OV-3 ovarian
KM12 colon = tested on: KM12 colon
OVCAR-5 ovarian = tested on: OVCAR-5 ovarian
HCT-15 colon = tested on: HCT-15 colon
MCF7 breast = tested on: MCF7 breast
DU-145 prostate = tested on: DU-145 prostate
BT-549 breast = tested on: BT-549 breast
T-47D breast = tested on: T-47D breast
PC-3 prostate = tested on: PC-3 prostate
HS 578T breast = tested on: HS 578T breast
MDA-N = tested on: MDA-N

CC(C)N(C(=O)C12C3C4C5(C#N)C3C1(C#N)C5C42I)C(C)C (configuration not stated)
TGI (CAKI-1 renal): > 100 µM | TGI (SF-295 CNS): > 100 µM | TGI (CCRF-CEM leukemia): > 59.7 µM | TGI (SW-620 colon): > 66 µM | TGI (786-0 renal): > 100 µM | TGI (RPMI-8226 leukemia): > 66.6 µM | TGI (NCI-H522 lung): > 100 µM | TGI (UO-31 renal): > 100 µM | TGI (HCC-2998 colon): > 100 µM | TGI (ACHN renal): > 100 µM | TGI (DMS 273 small cell lung): > 60.9 µM | TGI (HT29 colon): > 100 µM | TGI (IGROV1 ovarian): > 100 µM | TGI (TK-10 renal): > 100 µM | TGI (SK-MEL-5 melanoma): > 100 µM | TGI (DMS 114 small cell lung): > 64.5 µM | TGI (SNB-75 CNS): > 100 µM | TGI (OVCAR-4 ovarian): > 100 µM | TGI (SF-539 CNS): > 100 µM | TGI (SK-MEL-2 melanoma): > 100 µM | TGI (LOX IMVI melanoma): > 78.8 µM | TGI (HOP-92 NSCLC): > 100 µM | TGI (NCI-H23 lung): > 100 µM | TGI (UACC-257 melanoma): > 100 µM | TGI (OVCAR-8 ovarian): > 100 µM | TGI (A549 NSCLC): > 100 µM | TGI (M14 melanoma): > 100 µM | TGI (COLO 205 colon): > 65.1 µM | TGI (LXFL 529 NSCLC): > 100 µM | TGI (K-562 leukemia): > 59.4 µM | TGI (SR leukemia): 38.2 µM | TGI (HL-60(TB) leukemia): > 55.6 µM | TGI (A498 renal): > 100 µM | TGI (SNB-19 CNS): > 100 µM | TGI (OVCAR-3 ovarian): > 100 µM | TGI (KM20L2 colon): > 100 µM | TGI (EKVX NSCLC): > 100 µM | TGI (MOLT-4 leukemia): > 100 µM | TGI (NCI-H226 lung): > 100 µM | TGI (SK-MEL-28 melanoma): > 100 µM | TGI (XF 498 CNS): > 100 µM | TGI (MALME-3M melanoma): > 100 µM | TGI (RXF-631 renal): > 100 µM | TGI (RXF 393 renal): > 100 µM | TGI (DLD-1 colon): > 60.9 µM | TGI (HCT-116 colon): 31.5 µM | TGI (SF-268 CNS): > 100 µM | TGI (HOP-62 NSCLC): > 100 µM | TGI (SN12C renal): > 100 µM | TGI (HOP-18 NSCLC): > 100 µM | TGI (U251 CNS): > 100 µM | TGI (SNB-78 CNS): > 100 µM | TGI (M19-MEL melanoma): > 100 µM | TGI (UACC-62 melanoma): > 100 µM | TGI (NCI-H460 lung): > 100 µM | TGI (SK-OV-3 ovarian): > 100 µM | TGI (KM12 colon): > 100 µM | TGI (OVCAR-5 ovarian): > 100 µM | TGI (HCT-15 colon): > 100 µM

COC(=O)C1=C(O)c2cc(OC)c(OC)cc2C(c2ccc(OC)c(OC)c2)C1 (configuration not stated)
TGI (CAKI-1 renal): > 100 µM | TGI (SF-295 CNS): > 100 µM | TGI (CCRF-CEM leukemia): > 100 µM | TGI (SW-620 colon): > 100 µM | TGI (786-0 renal): > 100 µM | TGI (RPMI-8226 leukemia): > 100 µM | TGI (UO-31 renal): > 100 µM | TGI (HCC-2998 colon): > 100 µM | TGI (ACHN renal): > 100 µM | TGI (DMS 273 small cell lung): > 100 µM | TGI (HT29 colon): > 100 µM | TGI (IGROV1 ovarian): > 100 µM | TGI (TK-10 renal): > 100 µM | TGI (SK-MEL-5 melanoma): > 100 µM | TGI (DMS 114 small cell lung): > 100 µM | TGI (SNB-75 CNS): > 100 µM | TGI (OVCAR-4 ovarian): > 100 µM | TGI (SF-539 CNS): > 100 µM | TGI (SK-MEL-2 melanoma): > 100 µM | TGI (LOX IMVI melanoma): > 100 µM | TGI (HOP-92 NSCLC): > 100 µM | TGI (NCI-H23 lung): > 100 µM | TGI (UACC-257 melanoma): > 100 µM | TGI (OVCAR-8 ovarian): > 100 µM | TGI (A549 NSCLC): > 100 µM | TGI (M14 melanoma): > 100 µM | TGI (COLO 205 colon): > 100 µM | TGI (LXFL 529 NSCLC): > 100 µM | TGI (K-562 leukemia): > 100 µM | TGI (SR leukemia): > 100 µM | TGI (HL-60(TB) leukemia): > 100 µM | TGI (A498 renal): 98.2 µM | TGI (OVCAR-3 ovarian): > 100 µM | TGI (KM20L2 colon): > 100 µM | TGI (EKVX NSCLC): > 100 µM | TGI (MOLT-4 leukemia): > 100 µM | TGI (NCI-H226 lung): > 100 µM | TGI (SK-MEL-28 melanoma): > 100 µM | TGI (XF 498 CNS): > 100 µM | TGI (MALME-3M melanoma): > 100 µM | TGI (RXF-631 renal): > 100 µM | TGI (RXF 393 renal): > 100 µM | TGI (DLD-1 colon): > 100 µM | TGI (HCT-116 colon): > 100 µM | TGI (SF-268 CNS): > 100 µM | TGI (HOP-62 NSCLC): > 100 µM | TGI (SN12C renal): > 100 µM | TGI (HOP-18 NSCLC): > 100 µM | TGI (U251 CNS): > 100 µM | TGI (SNB-78 CNS): > 100 µM | TGI (M19-MEL melanoma): > 100 µM | TGI (UACC-62 melanoma): > 100 µM | TGI (NCI-H460 lung): > 100 µM | TGI (SK-OV-3 ovarian): > 100 µM | TGI (KM12 colon): > 100 µM | TGI (OVCAR-5 ovarian): > 100 µM | TGI (HCT-15 colon): > 100 µM

CC(=O)c1cccc(NC(=O)C(=O)NNc2n[nH]c(=S)n2N)c1
TGI (CAKI-1 renal): 34.4 µM | TGI (SF-295 CNS): 16.9 µM | TGI (CCRF-CEM leukemia): 20.3 µM | TGI (SW-620 colon): 22.5 µM | TGI (786-0 renal): 25.5 µM | TGI (RPMI-8226 leukemia): 58.8 µM | TGI (NCI-H522 lung): 21 µM | TGI (UO-31 renal): 22.6 µM | TGI (HCC-2998 colon): 27.5 µM | TGI (ACHN renal): 19.7 µM | TGI (MCF7 breast): 18.7 µM | TGI (DMS 273 small cell lung): 18.7 µM | TGI (HT29 colon): 31.8 µM | TGI (IGROV1 ovarian): 25.8 µM | TGI (TK-10 renal): 69.9 µM | TGI (SK-MEL-5 melanoma): 2.6 µM | TGI (DMS 114 small cell lung): 3.93 µM | TGI (SNB-75 CNS): 25.2 µM | TGI (OVCAR-4 ovarian): 23.4 µM | TGI (SF-539 CNS): 18.6 µM | TGI (SK-MEL-2 melanoma): 13.1 µM | TGI (LOX IMVI melanoma): 4.57 µM | TGI (HOP-92 NSCLC): 28.7 µM | TGI (NCI-H23 lung): 11.4 µM | TGI (UACC-257 melanoma): 9.17 µM | TGI (DU-145 prostate): 19.2 µM | TGI (OVCAR-8 ovarian): 24.1 µM | TGI (A549 NSCLC): 14.5 µM | TGI (M14 melanoma): 6.15 µM | TGI (COLO 205 colon): 27.9 µM | TGI (LXFL 529 NSCLC): 22.5 µM | TGI (K-562 leukemia): 27.6 µM | TGI (SR leukemia): 16.1 µM | TGI (HL-60(TB) leukemia): 32.1 µM | TGI (A498 renal): 37.7 µM | TGI (SNB-19 CNS): 21.2 µM | TGI (OVCAR-3 ovarian): 15.9 µM | TGI (KM20L2 colon): 46.1 µM | TGI (EKVX NSCLC): 29 µM | TGI (MOLT-4 leukemia): 18.3 µM | TGI (NCI-H226 lung): 20.1 µM | TGI (SK-MEL-28 melanoma): 18.5 µM | TGI (XF 498 CNS): 25.7 µM | TGI (BT-549 breast): 6.65 µM | TGI (MALME-3M melanoma): 5.18 µM | TGI (T-47D breast): 13.6 µM | TGI (PC-3 prostate): 23 µM | TGI (RXF-631 renal): 10.9 µM | TGI (HS 578T breast): 7.48 µM | TGI (RXF 393 renal): 24.1 µM | TGI (DLD-1 colon): 31.6 µM | TGI (HCT-116 colon): 12.8 µM | TGI (SF-268 CNS): 27.7 µM | TGI (HOP-62 NSCLC): 29.3 µM | TGI (SN12C renal): 20.3 µM | TGI (HOP-18 NSCLC): 24.2 µM | TGI (U251 CNS): 12 µM | TGI (SNB-78 CNS): 35 µM | TGI (M19-MEL melanoma): 2.36 µM | TGI (UACC-62 melanoma): 3.72 µM | TGI (NCI-H460 lung): 13.3 µM | TGI (SK-OV-3 ovarian): 43.1 µM | TGI (MDA-N): 3.8 µM | TGI (KM12 colon): 30.9 µM | TGI (OVCAR-5 ovarian): 33.1 µM | TGI (HCT-15 colon): 15.9 µM

Reference: PubChem BioAssay (NCI)
